Data as given in US20230085307A1, “PYRIDAZINONE COMPOUND AND HERBICIDE” (NISSAN CHEMICAL CORPORATION, priority 2019, published 2023).

Columns and labels:
Italian ryegrass [1] = test: Test Example 4: herbicidal effect by soil treatment (Table 19, symbol K); assay type: in vivo, Italian ryegrass (Lolium multiflorum); details: amount of applied herbicide 320 g/ha
In short: (§1)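 Scoring uses the grading scale of an earlier test, three weeks post-application. Treatment consists of spraying a diluted emulsion formulation across the surface of sterilized diluvial soil in which seeds are buried near 1.5 cm deep; boxes are kept in a greenhouse between 25° C. and 30° C.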

lambsquarters [2] = test: Test Example 4: herbicidal effect by soil treatment (Table 19, symbol O); assay type: in vivo, lambsquarters (Chenopodium album); details: amount of applied herbicide 320 g/ha
In short: as §1

chickweed [3] = test: Test Example 4: herbicidal effect by soil treatment (Table 19, symbol P); assay type: in vivo, common chickweed (Stellaria media); details: amount of applied herbicide 320 g/ha
In short: as §1

redroot pigweed [4] = test: Test Example 4: herbicidal effect by soil treatment (Table 19, symbol N); assay type: in vivo, redroot pigweed (Amaranthus retroflexus); details: amount of applied herbicide 320 g/ha
In short: as §1

green foxtail [5] = test: Test Example 4: herbicidal effect by soil treatment (Table 19, symbol G); assay type: in vivo, green foxtail (Setaria viridis); details: amount of applied herbicide 320 g/ha
In short: as §1

late watergrass = test: Test Example 1: herbicidal activity, application before weed generation under submerged conditions (Table 16, symbol A); assay type: in vivo, late watergrass (Echinochloa oryzicola)
In short: (§2)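 Alluvial soil was flooded to 4 cm depth, weed seeds were sown mixed and 2.5-leaf rice seedlings were transplanted. On sowing day, the compound's emulsion, diluted in water to a set dose, was applied to the water surface. Plants grew at 25–30 °C and were scored 0–5 after three weeks.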

velvetleaf [6] = test: Test Example 4: herbicidal effect by soil treatment (Table 19, symbol M); assay type: in vivo, velvetleaf (Abutilon theophrasti); details: amount of applied herbicide 320 g/ha
In short: as §1

Chinese sprangletop = test: Test Example 3: herbicidal effect by foliage application, Wagner pot (Table 18, symbol D); assay type: in vivo, chinese sprangletop (Leptochloa chinensis)
In short: (§3)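 Plants were sown in alluvial soil held under 0.1–0.5 cm standing water and grown 14 days in a greenhouse at 25–30 °C. An emulsifiable formulation, water-diluted to the set dose, was then sprayed onto the foliage, and effects were scored three weeks later using previously defined criteria.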

barnyard grass [7] = test: Test Example 4: herbicidal effect by soil treatment (Table 19, symbol H); assay type: in vivo, barnyard grass (Echinochloa crus-galli); details: amount of applied herbicide 320 g/ha
In short: as §1

persian speedwell [8] = test: Test Example 4: herbicidal effect by soil treatment (Table 19, symbol R); assay type: in vivo, Persian speedwell (Veronica persica); details: amount of applied herbicide 320 g/ha
In short: as §1

Japanese bulrush = test: Test Example 1: herbicidal activity, application before weed generation under submerged conditions (Table 16, symbol B); assay type: in vivo, Japanese bulrush (Schoenoplectus juncoides)
In short: as §2

windgrass [9] = test: Test Example 4: herbicidal effect by soil treatment (Table 19, symbol L); assay type: in vivo, windgrass (Apera spica-venti); details: amount of applied herbicide 320 g/ha
In short: as §1

wild oat [10] = test: Test Example 4: herbicidal effect by soil treatment (Table 19, symbol I); assay type: in vivo, wild oat (Avena fatua); details: amount of applied herbicide 320 g/ha
In short: as §1

barnyard grass [11] = test: Test Example 3: herbicidal effect by foliage application, Wagner pot (Table 18, symbol H); assay type: in vivo, barnyard grass (Echinochloa crus-galli)
In short: as §3

oval-leafed pondweed = test: Test Example 1: herbicidal activity, application before weed generation under submerged conditions (Table 16, symbol C); assay type: in vivo, oval-leafed pondweed (Monochoria vaginalis)
In short: as §2

southern crabgrass [12] = test: Test Example 4: herbicidal effect by soil treatment (Table 19, symbol F); assay type: in vivo, southern crabgrass (Digitaria ciliaris); details: amount of applied herbicide 320 g/ha
In short: as §1

rice flat sedge = test: Test Example 3: herbicidal effect by foliage application, Wagner pot (Table 18, symbol E); assay type: in vivo, rice flat sedge (Cyperus iria)
In short: as §3

blackgrass [13] = test: Test Example 4: herbicidal effect by soil treatment (Table 19, symbol J); assay type: in vivo, blackgrass (Alopecurus myosuroides); details: amount of applied herbicide 320 g/ha
In short: as §1

blackgrass [14] = test: Test Example 5: herbicidal effect by foliage application, plastic box (Table 20, symbol J); assay type: in vivo, blackgrass (Alopecurus myosuroides); details: amount of applied herbicide 320 g/ha; foliage application after 14-day growth; evaluated three weeks after application
In short: (§4)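 Post-emergence foliar test in sterilized diluvial soil. Compound applied as water-diluted emulsion at a predetermined rate to 14-day-old plants; evaluation at three weeks.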

Italian ryegrass [15] = test: Test Example 5: herbicidal effect by foliage application, plastic box (Table 20, symbol K); assay type: in vivo, Italian ryegrass (Lolium multiflorum); details: amount of applied herbicide 320 g/ha; foliage application after 14-day growth; evaluated three weeks after application
In short: as §4

redroot pigweed [16] = test: Test Example 5: herbicidal effect by foliage application, plastic box (Table 20, symbol N); assay type: in vivo, redroot pigweed (Amaranthus retroflexus); details: amount of applied herbicide 320 g/ha; foliage application after 14-day growth; evaluated three weeks after application
In short: as §4

chickweed [17] = test: Test Example 5: herbicidal effect by foliage application, plastic box (Table 20, symbol P); assay type: in vivo, common chickweed (Stellaria media); details: amount of applied herbicide 320 g/ha; foliage application after 14-day growth; evaluated three weeks after application
In short: as §4

barnyard grass [18] = test: Test Example 5: herbicidal effect by foliage application, plastic box (Table 20, symbol H); assay type: in vivo, barnyard grass (Echinochloa crus-galli); details: amount of applied herbicide 320 g/ha; foliage application after 14-day growth; evaluated three weeks after application
In short: as §4

velvetleaf [19] = test: Test Example 5: herbicidal effect by foliage application, plastic box (Table 20, symbol M); assay type: in vivo, velvetleaf (Abutilon theophrasti); details: amount of applied herbicide 320 g/ha; foliage application after 14-day growth; evaluated three weeks after application
In short: as §4

wild oat [20] = test: Test Example 5: herbicidal effect by foliage application, plastic box (Table 20, symbol I); assay type: in vivo, wild oat (Avena fatua); details: amount of applied herbicide 320 g/ha; foliage application after 14-day growth; evaluated three weeks after application
In short: as §4

green foxtail [21] = test: Test Example 5: herbicidal effect by foliage application, plastic box (Table 20, symbol G); assay type: in vivo, green foxtail (Setaria viridis); details: amount of applied herbicide 320 g/ha; foliage application after 14-day growth; evaluated three weeks after application
In short: as §4

windgrass [22] = test: Test Example 5: herbicidal effect by foliage application, plastic box (Table 20, symbol L); assay type: in vivo, windgrass (Apera spica-venti); details: amount of applied herbicide 320 g/ha; foliage application after 14-day growth; evaluated three weeks after application
In short: as §4

southern crabgrass [23] = test: Test Example 5: herbicidal effect by foliage application, plastic box (Table 20, symbol F); assay type: in vivo, southern crabgrass (Digitaria ciliaris); details: amount of applied herbicide 320 g/ha; foliage application after 14-day growth; evaluated three weeks after application
In short: as §4

persian speedwell [24] = test: Test Example 5: herbicidal effect by foliage application, plastic box (Table 20, symbol R); assay type: in vivo, Persian speedwell (Veronica persica); details: amount of applied herbicide 320 g/ha; foliage application after 14-day growth; evaluated three weeks after application
In short: as §4

lambsquarters [25] = test: Test Example 5: herbicidal effect by foliage application, plastic box (Table 20, symbol O); assay type: in vivo, lambsquarters (Chenopodium album); details: amount of applied herbicide 320 g/ha; foliage application after 14-day growth; evaluated three weeks after application
In short: as §4

[26] = amount of applied herbicide 320 g/ha

## COc1ccc(-c2sc3ccc(F)cc3c2-c2c(O)c(C)nn(C)c2=O)cc1Cl [2-370]
Italian ryegrass [1]
  herbicidal effect, K: Italian ryegrass: 0 (Herbicidal rate of 5% or less (almost no effect))
Lambsquarters [2]
  herbicidal effect, O: lambsquarters: 4 (Herbicidal rate of 70% or more and less than 90%)
Chickweed [3]
  herbicidal effect, P: chickweed: 3 (Herbicidal rate of 40% or more and less than 70%)
Redroot pigweed [4]
  herbicidal effect, N: redroot pigweed: 2 (Herbicidal rate of 20% or more and less than 40%)
Green foxtail [5]
  herbicidal effect, G: green foxtail: 0 (Herbicidal rate of 5% or less (almost no effect))
Late watergrass; 320 g/ha applied herbicide
  Herbicidal effect on A: late watergrass (grade 0-5): 3 (Herbicidal rate of 40% or more and less than 70%)
Velvetleaf [6]
  herbicidal effect, M: velvetleaf: 1 (Herbicidal rate of 5% or more and less than 20%)
Chinese sprangletop; [26]
  herbicidal effect on D: Chinese sprangletop: 2 (Herbicidal rate of 20% or more and less than 40%)
Barnyard grass [7]
  herbicidal effect, H: barnyard grass: 0 (Herbicidal rate of 5% or less (almost no effect))
Persian speedwell [8]
  herbicidal effect, R: persian speedwell: 4 (Herbicidal rate of 70% or more and less than 90%)
Japanese bulrush; 320 g/ha applied herbicide
  Herbicidal effect on B: Japanese bulrush (grade 0-5): 0 (Herbicidal rate of 5% or less (almost no effect))
Windgrass [9]
  herbicidal effect, L: windgrass: 0 (Herbicidal rate of 5% or less (almost no effect))
Wild oat [10]
  herbicidal effect, I: wild oat: 0 (Herbicidal rate of 5% or less (almost no effect))
Barnyard grass [11]; [26]
  herbicidal effect on H: barnyard grass: 3 (Herbicidal rate of 40% or more and less than 70%)
oval-leafed pondweed; 320 g/ha applied herbicide
  Herbicidal effect on C: oval-leafed pondweed (grade 0-5): 0 (Herbicidal rate of 5% or less (almost no effect))
Southern crabgrass [12]
  herbicidal effect, F: southern crabgrass: 0 (Herbicidal rate of 5% or less (almost no effect))
Rice flat sedge; [26]
  herbicidal effect on E: rice flat sedge: 5 (Herbicidal rate of 90% or more (almost completely withered))
Blackgrass [13]
  herbicidal effect, J: blackgrass: 0 (Herbicidal rate of 5% or less (almost no effect))

## COCOc1ccccc1-c1sc2c(Cl)cccc2c1-c1c(O)c(C)nn(C)c1=O [4-083]
Italian ryegrass [1]
  Herbicidal effect by soil treatment, K: Italian ryegrass: 0 (Herbicidal rate of 5% or less (almost no effect))
Lambsquarters [2]
  Herbicidal effect by soil treatment, O: lambsquarters: 0 (Herbicidal rate of 5% or less (almost no effect))
Chickweed [3]
  Herbicidal effect by soil treatment, P: chickweed: 3 (Herbicidal rate of 40% or more and less than 70%)
Redroot pigweed [4]
  Herbicidal effect by soil treatment, N: redroot pigweed: 3 (Herbicidal rate of 40% or more and less than 70%)
Green foxtail [5]
  Herbicidal effect by soil treatment, G: green foxtail: 0 (Herbicidal rate of 5% or less (almost no effect))
Late watergrass; [26]
  Herbicidal effect, A: late watergrass: 3 (Herbicidal rate of 40% or more and less than 70%)
Blackgrass [14]
  Herbicidal effect by foliage application, J: blackgrass: 0 (Herbicidal rate of 5% or less (almost no effect))
Velvetleaf [6]
  Herbicidal effect by soil treatment, M: velvetleaf: 1 (Herbicidal rate of 5% or more and less than 20%)
Italian ryegrass [15]
  Herbicidal effect by foliage application, K: Italian ryegrass: 0 (Herbicidal rate of 5% or less (almost no effect))
Chinese sprangletop; 320 g/ha
  herbicidal effect on Chinese sprangletop (D): 4 (Herbicidal rate of 70% or more and less than 90%)
Barnyard grass [7]
  Herbicidal effect by soil treatment, H: barnyard grass: 1 (Herbicidal rate of 5% or more and less than 20%)
Persian speedwell [8]
  Herbicidal effect by soil treatment, R: persian speedwell: 3 (Herbicidal rate of 40% or more and less than 70%)
Japanese bulrush; [26]
  Herbicidal effect, B: Japanese bulrush: 0 (Herbicidal rate of 5% or less (almost no effect))
Redroot pigweed [16]
  Herbicidal effect by foliage application, N: redroot pigweed: 1 (Herbicidal rate of 5% or more and less than 20%)
Windgrass [9]
  Herbicidal effect by soil treatment, L: windgrass: 0 (Herbicidal rate of 5% or less (almost no effect))
Chickweed [17]
  Herbicidal effect by foliage application, P: chickweed: 5 (Herbicidal rate of 90% or more (almost completely withered))
Wild oat [10]
  Herbicidal effect by soil treatment, I: wild oat: 0 (Herbicidal rate of 5% or less (almost no effect))
Barnyard grass [18]
  Herbicidal effect by foliage application, H: barnyard grass: 4 (Herbicidal rate of 70% or more and less than 90%)
Velvetleaf [19]
  Herbicidal effect by foliage application, M: velvetleaf: 3 (Herbicidal rate of 40% or more and less than 70%)
Wild oat [20]
  Herbicidal effect by foliage application, I: wild oat: 0 (Herbicidal rate of 5% or less (almost no effect))
Barnyard grass [11]; 320 g/ha
  herbicidal effect on barnyard grass (H): 5 (Herbicidal rate of 90% or more (almost completely withered))
Green foxtail [21]
  Herbicidal effect by foliage application, G: green foxtail: 3 (Herbicidal rate of 40% or more and less than 70%)
Windgrass [22]
  Herbicidal effect by foliage application, L: windgrass: 4 (Herbicidal rate of 70% or more and less than 90%)
oval-leafed pondweed; [26]
  Herbicidal effect, C: oval-leafed pondweed: 0 (Herbicidal rate of 5% or less (almost no effect))
Southern crabgrass [23]
  Herbicidal effect by foliage application, F: southern crabgrass: 3 (Herbicidal rate of 40% or more and less than 70%)
Persian speedwell [24]
  Herbicidal effect by foliage application, R: persian speedwell: 5 (Herbicidal rate of 90% or more (almost completely withered))
Southern crabgrass [12]
  Herbicidal effect by soil treatment, F: southern crabgrass: 0 (Herbicidal rate of 5% or less (almost no effect))
Rice flat sedge; 320 g/ha
  herbicidal effect on rice flat sedge (E): 5 (Herbicidal rate of 90% or more (almost completely withered))
Lambsquarters [25]
  Herbicidal effect by foliage application, O: lambsquarters: 1 (Herbicidal rate of 5% or more and less than 20%)
